Reference: patent publication US11053226B2, “KRAS G12C inhibitors and methods of using the same” (Amgen Inc., priority 2018, dated 2021)
Read-outs that look alike come from different tables or passages of the source.

Legend:
[1] = tested on: Phosphorylation of ERK1/2 in A549 cells; test: Phospho-ERK1/2 MSD Assay (A549); format: cell-based; details: Homo sapiens, A549, 4 h, read-out: pERK IC50 (4 h, A549), 4 h compound treatment
[2] = molecular target: GDP-bound KRAS protein (aa 1-169), containing both G12C and C118A amino acid substitutions (Homo sapiens (Human), UniProt P01116, C118A/G12C); test: Coupled Nucleotide Exchange Assay; format: biochemical
Chain of GDP-bound KRAS protein (aa 1-169), containing both G12C and C118A amino acid substitutions (P01116 other isoform, or with tags, fused parts or gaps G12C/C118A): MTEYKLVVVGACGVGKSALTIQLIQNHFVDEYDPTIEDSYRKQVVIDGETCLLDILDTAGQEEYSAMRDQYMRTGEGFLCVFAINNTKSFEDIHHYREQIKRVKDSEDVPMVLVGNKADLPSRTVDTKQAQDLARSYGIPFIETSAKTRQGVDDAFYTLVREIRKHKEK
Procedure: For compounds in Table 9, the following assay conditions were employed:
Coupled Nucleotide Exchange Assay:
The assay plates were then read on a PerkinElmer EnVision Multilabel Reader, using AlphaScreen® technology, and data were analyzed using a 4-parameter logistic model to calculate IC50 values.

[3] = first Coupled Exchange column, compound pre-incubation probably 5 min (rest of head not shown; b435 lists 5 min, 2 hours or 20 hours), read-out: Coupled Exchange IC50
[4] = third Coupled Exchange column, compound pre-incubation probably 20 hours (rest of head not shown; b435 lists 5 min, 2 hours or 20 hours), read-out: Coupled Exchange IC50
[5] = read-out: Coupled Exchange IC50 (5 min), 5 min compound pre-incubation
[6] = read-out: Coupled Exchange IC50 (2 h), 2 h compound pre-incubation
[7] = read-out: Coupled Exchange IC50 (20 h), 20 h compound pre-incubation
[8] = second Coupled Exchange column, read-out: Coupled Exchange IC50

| SMILES | IC50 [2, 3] [µM] | IC50 [2, 6] [µM] | IC50 [2, 7] [µM] | other results |
| --- | --- | --- | --- | --- |
| C=CC(=O)N1CC(NC(=O)Cn2cc(C(=O)NCc3ccccc3)c3cc(Br)ccc32)C1 [Example 163] | – | – | – | IC50 [1]: > 100 µM |
| C=CC(=O)N1CC(NC(=O)Cn2cc(C(=O)N3CCc4c(F)cccc4C3)c3cc(Br)ccc32)C1 [Example 118] | – | – | – | IC50 [1]: > 100 µM |
| C=CC(=O)N1CC(NC(=O)Cn2cc(C(=O)N3CCc4cc(F)ccc4C3)c3cc(Br)ccc32)C1 [Example 114] | – | – | – | IC50 [1]: > 100 µM |
| C=CC(=O)N1CC(NC(=O)Cn2cc(C(=O)NCCc3ccccc3)c3cc(Br)ccc32)C1 [Example 140] | – | – | – | IC50 [1]: > 100 µM |
| C=CC(=O)N1CC(NC(=O)Cn2cc(C(=O)N(C)Cc3ccccc3)c3cc(Br)ccc32)C1 [Example 155] | – | – | – | IC50 [1]: > 100 µM |
| C=CC(=O)N1CC(NC(=O)Cn2c(C3CC3)c(C(=O)N3CCc4c(cccc4OC)C3)c3cc(Cl)cc(C)c32)C1 [Example 1-7, 2-(5-Chloro-2-cyclopropyl-3-((5-methoxy-3,4-dihydro-2(1H)-isoquinolinyl)carbonyl)-7-methyl-1H-indol-1-yl)-N-(1-(2-propenoyl)-3-azetidinyl)acetamide] | – | – | – | IC50 [1]: 60.4 µM |
| C=CC(=O)N1CC(NC(=O)Cn2c(C)c(C(=O)N3CCc4c(cccc4OC)C3)c3cc(Br)ccc32)C1C (stereo not shown) [Example 44] | – | – | – | IC50 [1]: > 100 µM |
| C=CC(=O)N1CC(NC(=O)Cn2cc(C(=O)N3CCc4ccccc4C3)c3cc(Br)ccc32)C1 [Example 129] | – | – | – | IC50 [1]: > 100 µM |
| C=CC(=O)N1CC(N(C)C(=O)Cn2cc(C)c3cc(Br)ccc32)C1 [Example 355] | 155 | – | – | IC50 [2, 4]: 1.7 µM |
| C=CC(=O)N1CC(N(C)C(=O)Cn2ccc3c(C)c(Br)ccc32)C1 [Example 350] | 237 | – | – | IC50 [2, 4]: 1.53 µM |
| C=CC(=O)N1CC(CO)(NC(=O)Cn2ccc3cc(Br)ccc32)C1 [Example 353] | 182 | – | – | IC50 [2, 4]: 92.6 µM |
| C=CC(=O)N1CC(NC(=O)Cn2cc(C(=O)N3CCc4c(cccc4OC)C3)c3cc(Br)cc(C)c32)C1 [Example 82] | – | – | – | IC50 [1]: > 100 µM |
| C=CC(=O)N1CC(NC(=O)Cn2cc(CC(=O)N3CCc4ccc(C(=O)O)cc4C3)c3cc(Br)ccc32)C1 [Example 330] | 36.6 | – | – | – |
| C=CC(=O)N1CC(NC(=O)Cn2cc(I)c3cc(C(F)(F)F)ccc32)C1 [Example 257] | – | 9.12 | 0.97 | IC50 [2, 5]: 64.7 µM |
| C=CC(=O)N1CC(NC(=O)Cn2ccc3cc(Br)ccc32)C1 [Example 180] | – | > 250 | 5.5 | IC50 [2, 5]: 201 µM |
| C=CC(=O)N1CC(NC(=O)Cn2c3c(c4cc(Br)ccc42)CCNC3)C1 [Example 250] | – | 89.4 | 5.69 | – |
| C=CC(=O)N1CC(NC(=O)Cn2cc(CC(=O)N3CCCCC3CN3CCCCC3)c3cc(Br)ccc32)C1 (stereo not shown) [Example 326] | 26.1 | – | – | – |
| C=CC(=O)N1CC(NC(=O)Cn2ccc3c(Cl)cccc32)C1 [Example 199] | – | > 250 | 21.6 | – |
| C=CC(=O)N1CC(NC(=O)Cn2c3c(c4cc(Br)ccc42)CN(C(C)=O)CC3)C1 [Example 251] | – | > 250 | 7.91 | – |
| C=CC(=O)N1CC(NC(=O)Cn2cc(Cc3ccccc3)c3cc(Br)ccc32)C1 [Example 231] | – | 10.3 | 2.05 | – |
| C=CC(=O)N1CC(NC(=O)Cn2ccc3cc(Br)c(C)cc32)C1 [Example 186] | – | 26.6 | 4.47 | IC50 [2, 5]: > 250 µM |
| C=CC(=O)N1CC(NC(=O)Cn2c3c(c4cc(Br)ccc42)CCN(Cc2ccccc2)C3)C1 [Example 239] | – | > 250 | 44 | – |
| C=CC(=O)N1CC(NC(=O)Cn2c(C)c(C(=O)OC(C)(C)C)c3cc([N+](=O)[O-])ccc32)C1 [Example 278] | – | – | – | IC50 [2, 8]: 105 µM; IC50 [2, 4]: > 250 µM |
| C=CC(=O)N1CC(NC(=O)Cn2ccc3cc([N+](=O)[O-])ccc32)C1 [Example 232] | – | > 250 | 94.1 | – |
| C=CC(=O)N1CC(N(C)C(=O)Cn2c(C)c(-c3cnccc3C3=CCCCC3)c3cc(Cl)cc(C)c32)C1 [Example 337] | 2.02 | – | – | – |
| C=CC(=O)N1CC(NC(=O)Cn2ccc3c(Cl)c(Cl)ccc32)C1 [Example 317] | – | – | – | IC50 [2, 8]: 15.5 µM |
| C=CC(=O)N1CC(NC(=O)Cn2c3ccc(Br)cc3c3cc(Br)ccc32)C1 [Example 193] | – | > 250 | 0.39 | – |
| C=CC(=O)N1CC(NC(=O)Cn2ccc3cc(F)ccc32)C1 [Example 198] | – | > 250 | > 250 | – |

| SMILES | IC50 [2, 3] [µM] | IC50 [2, 6] [µM] | IC50 [2, 7] [µM] | other results |
| --- | --- | --- | --- | --- |
| C=CC(=O)N1CC(NC(=O)Cn2c3ccccc3c3ccccc32)C1 [Example 195] | – | > 250 | 33.5 | – |
| C=CC(=O)N1CC(NC(=O)Cn2c3ccc(Br)cc3c3ccc(Cl)nc32)C1 [Example 218] | – | > 250 | > 250 | – |
| C=CC(=O)N1CC(NC(=O)Cn2c(C(=O)NCCc3ccccc3)cc3cc(Br)ccc32)C1 [Example 189] | – | 15.6 | 1.62 | – |
| C=CC(=O)N1CC(NC(=O)Cn2cc(-c3c(F)ccc4cn[nH]c34)c3cc(-c4c(F)ccc5cn[nH]c45)ccc32)C1 [Example 208] | – | 20.5 | 13 | – |
| C=CC(=O)N1CC(NC(=O)Cn2cc(Cc3ccccc3)c3ccccc32)C1 [Example 213] | – | 31.1 | 5.09 | – |
| C=CC(=O)N1CC(N(C)C(=O)Cn2ccc3cc(Br)ccc32)C1 [Example 346] | > 250 | – | – | IC50 [2, 4]: 2.73 µM |
| C=CC(=O)N1CC(NC(=O)Cn2c(C)c(-c3cnccc3C3=CCCCCC3)c3cc(Cl)cc(C)c32)C1 [Example 340] | 0.89 | – | – | – |
| C=CC(=O)N1CC(NC(=O)Cn2c(C)c(-c3cncnc3C3CCCCC3)c3cc(Cl)cc(C)c32)C1 [Example 342] | 0.66 | – | – | – |
| C=CC(=O)N1CC(NC(=O)Cn2c3ccc(Br)cc3c3ccncc32)C1 [Example 259] | – | 26.8 | 2.88 | – |
| C=CC(=O)N1CC(C)(N(C)C(=O)Cn2ccc3cc(Br)ccc32)C1 [Example 356] | > 250 | – | – | IC50 [2, 4]: > 31.3 µM |
| C=CC(=O)N1CC(NC(=O)Cn2c(C3CC3)c(-c3cnccc3C(C)C)c3cc(Cl)cc(C)c32)C1 [Example 324] | 2.42 | – | – | – |
| C=CC(=O)N1CC(NC(=O)Cn2ccc3cc(CC)ccc32)C1 [Example 277] | – | – | – | IC50 [2, 8]: > 250 µM; IC50 [2, 4]: > 250 µM |
| C=CC(=O)N1C[C@H](NC(=O)Cn2ccc3cc(Br)ccc32)[C@@H]1C [Example 363] | > 250 | – | – | IC50 [2, 4]: 2.22 µM |
| C=CC(=O)N1CC(NC(=O)Cn2c(C)c(-c3cnccc3C3=CCC(C)CC3)c3cc(Cl)cc(C)c32)C1 (stereo not shown) [Example 334] | 0.37 | – | – | – |
| C=CC(=O)N1CC(NC(=O)Cn2c(C(=O)NCc3ccc(C(=O)O)s3)cc3cc(Br)ccc32)C1 [Example 225] | – | > 250 | 19.8 | – |
| C=CC(=O)N1CC(NC(=O)Cn2c(C(=O)OC)cc3cc(Br)ccc32)C1 [Example 181] | – | > 250 | 6.47 | – |
| C=CC(=O)N1CC(NC(=O)Cn2c(C)c(-c3cccnc3N3CCC(C)CC3)c3cc(Cl)cc(C)c32)C1 [Example 344] | 0.88 | – | – | – |
| C=CC(=O)N1CC(NC(=O)Cn2c(C)c(-c3cncnc3C(C)C)c3cc(Cl)cc(C)c32)C1 [Example 338] | 2.87 | – | – | – |
| C=CC(=O)N1C[C@@H](NC(=O)Cn2ccc3cc(Br)ccc32)[C@H]1C [Example 362] | > 250 | – | – | IC50 [2, 4]: > 250 µM |
| C=CC(=O)N1CC(NC(=O)Cn2ccc3cc(Br)cc(F)c32)C1 [Example 267] | – | 15.5 | 2.25 | – |
| C=CC(=O)N1CC(NC(=O)Cn2ccc3ccc(Cl)cc32)C1 [Example 202] | – | > 250 | > 250 | – |
| C=CC(=O)N1CC(NC(=O)Cn2c(C)c(-c3ncccc3Cl)c3cc(Cl)ccc32)C1 [Example 306] | – | – | – | IC50 [2, 8]: 9.53 µM; IC50 [2, 4]: 1.64 µM |
| C=CC(=O)N1CC(NC(=O)Cn2cc(-c3cocn3)c3ccc(-c4ccccc4Cl)cc32)C1 [Example 219] | – | > 250 | 2.87 | – |
| C=CC(=O)N1CC(NC(=O)Cn2ccc3ccccc32)C1 [Example 183] | – | > 250 | > 250 | – |
| C=CC(=O)N1CC(CO)(N(C)C(=O)Cn2ccc3cc(Br)ccc32)C1 [Example 354] | > 250 | – | – | IC50 [2, 4]: > 62.5 µM |
| C=CC(=O)N1CC(NC(=O)Cn2c(C=O)cc3cc(Br)ccc32)C1 [Example 185] | – | > 250 | 15.9 | – |
| C=CC(=O)N1CC(NC(=O)Cn2cc(-c3c(C)ccc4cn[nH]c34)c3cc(-c4c(C)ccc5cn[nH]c45)ccc32)C1 [Example 205] | – | 80.5 | 11.4 | – |
